Test results as given in patent US20260049078A1, “DIFLUORO- AND TRIFLUORO-ACETYL HYDRAZIDES AS SELECTIVE HDAC6 INHIBITORS” (ITALFARMACO S.P.A., priority 2022, published 2026).

Assays:
zHDAC6-CD2 wt = zHDAC6-CD2 wt (Danio rerio (Zebrafish) (Brachydanio rerio), UniProt F8W4B7); assay: Isolation of long-lived/tight complex (spin column chromatography with LC-HRMS); format: binding; conditions: zHDAC6-CD2 wt 1 μM, compound 5 μM, 6 hours, Bio-Spin P-6
Procedure: Rapid chromatography on spin columns coupled to LC-HRMS was used to attempt the isolation of long-lived/tight complexes between HDAC6 and examples 1 and 1-A. zHDAC6-CD2 wt (1 μM) was incubated with 1 (5 μM) or 1-A (also 5 μM) as described before for 6 hours. An aliquot (60 μL) was loaded on a Bio-Spin P-6 Gel Column (Bio-Rad) that had been equilibrated with assay buffer in order to separate the HDAC6-inhibitors complexes from free compounds. After centrifugation to elute the initial fraction containing most of the enzyme, ten 200 μL aliquots were applied and eluted by centrifugation to collect the low molecular weight (free) compounds. Aliquots of the fractions were subjected to LC-HRMS analysis (as described above) for identification and quantitation of 1 and its derivatives.

recombinant human HDAC6 = recombinant human HDAC6 (Homo sapiens (Human), UniProt Q9UBN7); assay: Enzyme inhibitory activity assay on HDAC6; format: biochemical; conditions: 30 minutes preincubation at 25° C.
Sequence of recombinant human HDAC6 (Q9UBN7 whole entry): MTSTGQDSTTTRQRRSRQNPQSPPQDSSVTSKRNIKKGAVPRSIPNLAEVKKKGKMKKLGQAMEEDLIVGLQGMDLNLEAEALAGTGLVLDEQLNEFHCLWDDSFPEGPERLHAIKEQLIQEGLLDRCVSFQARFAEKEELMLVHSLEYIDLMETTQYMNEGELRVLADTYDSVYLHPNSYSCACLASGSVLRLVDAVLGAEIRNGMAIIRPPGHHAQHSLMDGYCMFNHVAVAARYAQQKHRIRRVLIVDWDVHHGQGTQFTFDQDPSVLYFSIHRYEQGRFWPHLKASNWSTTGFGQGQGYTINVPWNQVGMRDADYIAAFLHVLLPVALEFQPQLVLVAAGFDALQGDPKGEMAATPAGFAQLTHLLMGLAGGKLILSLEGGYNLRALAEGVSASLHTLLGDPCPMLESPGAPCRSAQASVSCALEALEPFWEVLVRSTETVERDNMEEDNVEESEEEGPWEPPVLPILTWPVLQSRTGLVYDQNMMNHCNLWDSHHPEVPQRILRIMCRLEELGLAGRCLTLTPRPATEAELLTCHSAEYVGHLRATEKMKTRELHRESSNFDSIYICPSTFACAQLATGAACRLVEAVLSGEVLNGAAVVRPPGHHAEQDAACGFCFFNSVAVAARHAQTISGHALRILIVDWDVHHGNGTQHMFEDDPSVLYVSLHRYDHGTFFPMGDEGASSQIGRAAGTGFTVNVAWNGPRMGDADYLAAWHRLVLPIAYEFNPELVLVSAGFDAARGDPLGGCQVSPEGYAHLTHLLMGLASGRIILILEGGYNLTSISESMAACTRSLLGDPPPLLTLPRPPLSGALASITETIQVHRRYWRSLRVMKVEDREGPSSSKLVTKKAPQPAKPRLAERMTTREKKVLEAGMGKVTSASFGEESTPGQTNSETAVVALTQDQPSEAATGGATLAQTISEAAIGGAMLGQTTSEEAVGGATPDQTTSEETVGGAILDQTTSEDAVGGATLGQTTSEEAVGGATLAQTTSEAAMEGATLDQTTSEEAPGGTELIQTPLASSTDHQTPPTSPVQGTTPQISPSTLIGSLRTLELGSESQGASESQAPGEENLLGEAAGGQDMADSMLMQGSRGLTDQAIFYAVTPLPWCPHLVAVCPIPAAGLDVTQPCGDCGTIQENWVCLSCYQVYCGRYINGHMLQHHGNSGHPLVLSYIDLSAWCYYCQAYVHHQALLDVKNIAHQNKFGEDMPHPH
Procedure: (§1) For each test compound, 100× concentrated DMSO solutions at 8 doses were prepared and then diluted in assay buffer (25 mM Tris-HCl, pH 8, 130 mM NaCl, 0.05% Tween-20, 10% Glycerol) to obtain 5× concentrated solutions in relation to the final concentrations (typical final concentration range—6.4-200000 nM or 0.18-50000 nM, final DMSO content—1%). Then 10 μL solution of each test compound concentration were placed on a 96-well plate in triplicate and 15 μL of 3.33× concentrated enzyme solution in the assay buffer containing 3.33× concentrated BSA (final BSA concentration 1 mg/mL) and, in case of HDAC6, 3.33× concentrated TCEP (final TCEP concentration—200 μM) were added to each well. After a period of preincubation at 25° C. (30 minutes for HDAC6 and 120 minutes for HDAC1), 25 μL of solution containing the substrate were added. As substrate, FLUOR DE LYS® deacetylase substrate (Enzo Life Sciences, cat: BML-KI104, FdL), FLUOR DE LYS®-Green substrate (Enzo Life Sciences, cat: BML-KI572, FdL_G) or Boc-Lys(Tfa)-AMC (Bachem, cat: 4060676.005, Tfal)—2× concentrated solution in assay buffer were used. Following a reaction period (30 minutes at 25° C.), 50 μL of the development solution consisting of concentrate FLUOR DE LYS® developer I (Enzo Life Sciences, ca: BML-KI105), diluted 200 times in buffer (50 mM Tris-HCl, pH 8, 137 mM NaCl, 2.7 mM KCl, 1 mM MgCl2) plus 2 μM TSA was added and, after 25 minutes at room temperature in the dark, using the Victor 1420 Multilabel Counter Perkin Elmer Wallac instrument, the fluorescence reading was carried out (excitation/emission: 485/535 nM—Fluor de Lys Green, 355/460 nM—Tfal, Fluor de Lys).
(§2) Enzymatic activity on recombinant human HDAC6 and HDAC1 was evaluated (Table 2) for each synthesized compound.

[1] = system: human B cell precursor leukemia 697; assay: In vitro α-tubulin acetylation in 697 cell line; format: cell-based; conditions: Homo sapiens, B-cell, 16 h; read-out: TubAc 697 cells EC50
Procedure: The in vitro α-tubulin acetylation was evaluated on human B cell precursor leukemia 697.
The 697 cells were maintained in RPMI Medium 1640 (Gibco, cat: 21875-034) supplemented with 10 mM HEPES (Gibco, cat: 15630-080), Pen-Strep (Penicillin 100 U/ml, Streptomycin 100 μg/ml, Gibco, cat: 15140-122) and 10% fetal bovine serum (Gibco, cat: 10270-106).
The cells were plated in 12-well plates (Costar, cat: 3512) at the density of 5.5×10^5 cells/ml.
Serial dilutions of test compounds in DMSO were prepared using 20 mM stock solutions to obtain 8 doses 200× concentrated in respect to final doses (2.7-100000 nM). Then the DMSO solutions were diluted 10× in culture medium to obtain 20× concentrated solutions which were used for cells treatment (125 μl of medium solutions were added to 2.375 ml of cells suspension). The final DMSO content was set as 0.5%. The plates were incubated at 37° C., 5% CO2 for 16 hours.
At the end of the incubation period, the cells were harvested and centrifuged for 5 minutes at 200×g and washed with 0.9% NaCl at 4° C. The resulting pellet was treated for 30 minutes at 4° C. with 100 μl Complete Lysis-M buffer containing protease inhibitors (Complete Lysis-M Roche+Complete Tablets, Mini Easypack, cat: 4719956001) and phosphatase inhibitor cocktails (PhosStop Easypack, Roche, cat: 4906837001) and then centrifuged 10 minutes at 18213×g. The protein concentration in each supernatant was determined using BCA Protein Assay Kit (Pierce, cat: 23227). The samples were diluted in PBS 1× to obtain 2 μg/ml concentration and coated in MaxiSorp 96-well plates (Nunc, cat: 442404). The plates were incubated overnight at room temperature.
Plates were washed twice with Wash Buffer (PBS 1×+0.005% tween 20) and saturated for 1 hour at room temperature with 300 μL of 1×PBS containing 10% FBS. After washing twice with Wash Buffer, the plates were incubated for 2 hours at room temperature in the presence of 100 μl/well either anti-acetylated-α-tubulin antibody (Monoclonal Anti-Tubulin, Acetylated antibody produced in mouse, Sigma-Aldrich, cat: T6793) or total anti-α-tubulin antibody (Monoclonal Anti-α-Tubulin produced in mouse, Sigma-Aldrich, cat: T6074) diluted 1:1000 in 1×PBS containing 10% FBS. Following 5 washing cycles with Wash Buffer the secondary antibody conjugated with the enzyme HRP (Goat anti-Mouse IgG, IgM, IgA (H+L), stock concentration 0.5 mg/ml, Thermo Fisher Scientific, cat: A10668), diluted 1:1000 in 1×PBS+10% FBS was added at the volume of 100 μl/well. After two hours of incubation at room temperature the plates were washed 4 times with Wash Buffer, then 100 μl/well of TMB substrate (TMB substrate kit, Thermo Fisher Scientific, cat: 34021) was added for 10 minutes at room temperature in the dark. The reaction was stopped by adding 50 μl of 2M H2SO4. The plates were read in BioTek Synergy H1 multimode microplate reader at a wavelength of 450 nm.
The measured absorbance was corrected by subtracting the mean of blank values (samples without the primary antibody). The absorbance ratios of acetyl to total tubulin assays were calculated and normalized to the reference compound (positive control) 4 parameter logistic curve, where 0% is the fitted bottom and 100% is the fitted top of the curve. The results are expressed as relative EC50.

recombinant human HDAC1 = recombinant human HDAC1 (Homo sapiens (Human), UniProt Q13547); assay: Enzyme inhibitory activity assay on HDAC1; format: biochemical; conditions: 120 minutes preincubation at 25° C.
Sequence of recombinant human HDAC1 (Q13547 whole entry): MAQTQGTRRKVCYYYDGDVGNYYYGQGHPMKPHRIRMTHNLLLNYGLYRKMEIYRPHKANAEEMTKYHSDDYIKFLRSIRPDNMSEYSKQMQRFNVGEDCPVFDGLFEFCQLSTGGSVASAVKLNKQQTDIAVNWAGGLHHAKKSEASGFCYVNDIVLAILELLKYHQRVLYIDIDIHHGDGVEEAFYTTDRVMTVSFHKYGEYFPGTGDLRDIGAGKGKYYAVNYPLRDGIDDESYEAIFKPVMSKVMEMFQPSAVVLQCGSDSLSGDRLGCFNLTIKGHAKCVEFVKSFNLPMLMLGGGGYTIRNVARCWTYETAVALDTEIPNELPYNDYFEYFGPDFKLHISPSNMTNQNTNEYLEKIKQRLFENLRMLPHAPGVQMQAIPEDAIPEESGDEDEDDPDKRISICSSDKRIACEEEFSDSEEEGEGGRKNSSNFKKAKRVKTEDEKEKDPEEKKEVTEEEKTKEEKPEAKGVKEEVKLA
Procedure: as §1, §2

SH-SY5Y cells = assay: In vitro α-tubulin acetylation in undifferentiated SH-SY5Y cells; format: cell-based; conditions: overnight, @1uM
Procedure: SH-SY5Y cells (ATCC, cod. CRL-2266) are plated in optical optimized 96-well black plates (Perkin Elmer, cod. 6055302) at 5000 cells/well in 100 μl/well of growth medium (DMEM/F12 (1:1)+10 mM hepes+100 units/mL of penicillin+100 μg/mL of streptomycin+10% of inactivated Foetal calf serum (FCS, Hyclone)).
After 24 h of seeding, cells are incubated overnight with the selected molecules at 0.1-1-10 μM. ACY1083 and Tubastatin A, at the same doses, are tested as positive controls of α-Tubulin acetylation, while untreated cells are incubated with 0.01% DMSO and indicated as CTRL DMSO.
At the end of the incubation, cells are fixed adding 100 μL/well of formaldehyde 8% in PBS (final formaldehyde concentration 4% in 200 μL/well) directly in the 100 μL/well of medium, for 30 min at RT. The fixing solution is carefully removed, and wells are washed twice with PBS for 10 min each. Fixed cells are kept in PBS at 4° C. until staining.
The day of the staining experiment, the fixed cells are incubated 60 min with the blocking buffer (PBS with 5% FCS+0.3% Triton™ X-100). While blocking, primary antibodies are prepared by diluting 1:200 the α-Tubulin Alexa Fluor 488 Conjugate (Cell Signaling, cod. 5063) antibody and 1:50 Acetyl-α-Tubulin Alexa Fluor 647 Conjugate (Cell Signaling, cod. 81502) antibody in the Antibody Dilution Buffer (PBS with 1% BSA+0.3% Triton™ X-100). Once the blocking solution is aspirated, the diluted primary antibodies are applied and incubated overnight at 4° C. The next day, cells are rinsed twice with PBS (10 min each), incubated 5 min with 300 nM DAPI in PBS, and then rinsed twice with PBS (10 min each). For each treatment, 3 wells are stained.
Images of the stained cells are acquired by means of the IN Cell Analyzer 2500 HS Instrument, using: far red channel for Acetyl-α-Tubulin staining (exposure 0.02 sec), green channel for α-Tubulin staining (exposure 0.02 sec), and blue channel for DAPI (nuclei) staining. For each well, 10 images are acquired.
Images of stained cells are analysed with the InCarta software (Molecular Devices) for obtaining fluorescence intensity considering whole cells. For each treatment, mean values of Cell intensity—Bckg (Cell), for both staining, are obtained using the InCarta raw data by FOV (Field of View). Results are expressed as fold increase of the ratio of acetylated tubulin and total tubulin towards control (CTRL DMSO).

Sequence of zHDAC6-CD2 wt (F8W4B7 entry or part of it del 1-439/del 799-1081 limits assumed): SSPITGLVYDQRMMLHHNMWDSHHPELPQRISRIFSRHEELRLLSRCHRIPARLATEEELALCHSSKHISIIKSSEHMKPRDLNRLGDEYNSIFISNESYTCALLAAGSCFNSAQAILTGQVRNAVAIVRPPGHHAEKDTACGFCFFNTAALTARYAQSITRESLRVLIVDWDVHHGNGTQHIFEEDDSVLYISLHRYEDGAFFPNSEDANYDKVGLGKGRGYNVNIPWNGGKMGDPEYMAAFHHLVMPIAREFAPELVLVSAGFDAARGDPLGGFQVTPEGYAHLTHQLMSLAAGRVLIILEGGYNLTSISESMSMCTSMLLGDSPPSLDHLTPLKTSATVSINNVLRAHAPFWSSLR

O=C(NNC(=O)C(F)F)c1ccc(Cn2cc(-c3ccc(NC4=NCCN4)cc3)nn2)cc1 [Compound 1, N′-(2,2-difluoroacetyl)-4-((4-(4-((4,5-dihydro-1H-imidazol-2-yl)amino)phenyl)-1H-1,2,3-triazol-1-yl)methyl)benzohydrazide]
co-elution with the enzyme (fraction 1) (zHDAC6-CD2 wt): co-elutes with the enzyme

CC(c1ccc(-c2nnc(C(F)F)o2)cn1)n1cc(-c2ccc(N)nc2)nn1 (centres unmarked) [Compound 39-A]
IC50 (recombinant human HDAC6): 14 nM
EC50 [1]: 320 nM
IC50 (recombinant human HDAC1): > 100000 nM
TubAc SH-SY5Y cells fold increase of the ratio of acetylated tubulin and total tubulin towards control (SH-SY5Y cells): 6.5 fold
